Results taken from patent publication US9765118B2, “Pharmaceutical composition for cancer prevention and treatment containing peptide originated from C12orf59 protein as an active ingredient” (KOREA RESEARCH INSTITUTE OF BIOSCIENCE AND BIOTECHNOLOGY, priority 2010, dated 2017).

Columns and labels:
SW480 cells [1] = test: Transwell invasion assay with peptide-treated SW480 cells; format: cell-based, human; settings: for invasion of colorectal cancer cells compared to the control: 50 μM, control DMSO 0.25%; for invasion of cells reduced by: FIGS. 18 and 19, concentration not given
Method: (§1) Particularly, the porous membrane of 24-well transwell plate (8 μm pore size; Costar, USA) was coated with 100 μl of matrigel (BD Biosciences, USA) diluted in serum free medium at the concentration of […], which stood at room temperature for 1 hour for fixing. The lower part of the transwell plate was coated with 100 μl of collagen type I (Sigma) at the concentration of […]. The said collagen type I was used as a chemoattractant. 1×10^4 cells resuspended in serum free medium were distributed in the upper chamber of the said 24-well transwell plate, followed by culture at 37° C. with 5% CO2 for 48 hours, during which the cells were induced to migrate from the upper chamber to the lower chamber. The non-migrated cells were eliminated from the surface of the upper chamber. […] The excessive crystal violet solution was washed off with distilled water. The selected area (×100) was photographed. The number of the cells migrated was counted from 5 different selected areas. Then, mean value and standard error were obtained.
SW480 colorectal cancer cells were treated with peptides originated from C12orf59, and effects of the peptids on invasion of the cells were analyzed.

SW480sub cells = test: Transwell matrigel invasion assay with peptide-treated SW480sub cells; format: cell-based, human; settings: for invasion reduced compared to vehicle control: peptide 50 μM; for colorectal cancer cell invasion reduced by / inhibitory effects on invasion: peptide 100 μg/ml, 48 hours
Method: SW480sub was subpopulation of SW480 having high in vitro invasion and in vivo metastasis ability. The effect of each peptide on colorectal cancer cell invasion was analyzed using the said SW480sub. SW480sub cells were mixed with each peptide, followed by pre-incubation for 30 minutes.
as §1

colorectal cancer cells = test: Cellular survival rate of colorectal cancer cells by absorbance (Experimental Example 4); format: cell-based; settings: as in Example <3-2>
Method: (§2) Particularly, 100 μl of poly-HEMA (Sigma) at the concentration of 12 mg/ml was loaded in 96-well plate, which stood in clean bench for 1 day, followed by drying. On the next day, the plate was coated with Poly-HEMA once again. Cells were distributed in the poly-HEMA coated plate by 100 μl/well (1×10^4 cells/well). At that time, serum-free medium was used. 6 days later, 10 μl of CCK-8 reagent (Dojindo cat. CK04-13) was added to each well, followed by reaction for 3 hours. Then, OD450 was measured.
In particular, a cellular survival rate was measured using absorbance in the same manner as in Example <3-2>.

[2] = tested on: C8161 (human melanoma) cell line; test: Transwell invasion assay with C8161 cells in the presence of the peptide; format: cell-based; settings: 24 h
Method: Specifically, C8161 (human melanoma) cell line was cultured in DMEM containing 10% FBS, penicillin-streptomycin, L-glutamine, sodium pyruvate and glucose. C8161 cells (1×10^4) in the presence of the peptide were plated in serum-free medium on 24-well Transwell inserts (8 μm pore size; Costar, USA) coated with 25 μg of […] (BD Biosciences, USA). The underside of the insert was coated with 100 μl of collagen type I (Sigma) at the concentration of 5 μg/ml. […] The number of cells that had invaded was counted in five representative fields per insert. Then, mean value and standard deviation were obtained.

SW480 cells [3] = test: Cell survivability under anchorage independent condition (polyHEMA, CCK-8, OD450) with peptides; format: cell-based, human; settings: 6 days, serum-free
Method: 6 days later, cell survivability was measured by colorimetric technique under the anchorage independent condition.
as §2

Substance | invasion of colorectal cancer cells compared to the control (SW480 cells [1]) | invasion of cells reduced by (SW480 cells [1]) [%] | invasion reduced compared to vehicle control (SW480sub cells) [%] | survival of colorectal cancer cells (colorectal cancer cells) | also measured
CLTTDWVH (A/B common) | effects similar to those of A_C-term2 and B_C-term2 | – | – | – | –
EENCGNP (A_C-term2) | inhibited the invasion | 38 | 46 | – | colorectal cancer cell invasion reduced by / inhibitory effects on invasion (SW480sub cells): about 99%
EENCGNPEHCLT (A_C-term1) | – | 48 | 48 | inhibitory effects on the survival of colorectal cancer cells in a concentration-dependent manner | colorectal cancer cell invasion reduced by / inhibitory effects on invasion (SW480sub cells): about 92%
EENCGNPEHCLTTDWVH (A_intact) [17 amino acid peptide from the extracellular domain of C12orf59 isoform 1] | – | – | 40 | – | C8161 invasion reduced by ([2]; 30 μg/ml): 10%; C8161 invasion reduced by ([2]; 100 μg/ml): 45%; cell survivability reduced by (SW480 cells [3]): 82%
NPEHCLT (A_Cen) | – | 49 | – | – | –
NPEHCLTTDWVH (A_N-term) | – | 39 | – | inhibitory effects on the survival of colorectal cancer cells in a concentration-dependent manner | –
PCCISS (B_Cen2) | superior inhibitory effects | – | – | – | –
PCCISSCCLTTDWVH (B_N-term) | – | – | – | inhibitory effects on the survival of colorectal cancer cells in a concentration-dependent manner | –
SWRPQPCCIS (B_C-term2) | inhibited the invasion | 39 | 50 | – | –
SWRPQPCCISSCCLT (B_C-term1) | – | – | – | inhibitory effects on the survival of colorectal cancer cells in a concentration-dependent manner | –
